Experimental data published in US7858072B2, “Stilbene derivatives and their use for binding and imaging amyloid plaques” (The Trustees of the University of Pennsylvania, priority 2004, dated 2010).
Like-named read-outs stand apart in the source and are kept apart here. Each block holds one compound with its values, some of them ahead of it.

Legend:
fibrillar Aβ aggregates = fibrillar Aβ aggregates (Homo sapiens, UniProt P05067); details: Mathis et al. 1997; read-out: inhibition constants (Ki) for binding to fibrillar Aβ aggregates; cited from earlier work
[1] = molecular target: Aβ plaques (postmortem AD brain homogenates) (Homo sapiens, UniProt P05067); experiment: Binding assay: inhibition of [125I]IMPY binding in postmortem AD brain homogenates
Experimental: Postmortem brain tissues were obtained from AD patients at autopsy, and neuropathological diagnosis was confirmed by current criteria (NIA-Reagan Institute Consensus Group, 1997). Homogenates were then prepared from dissected gray matters from AD patients in phosphate buffered saline (PBS, pH 7.4) at the concentration of approximately 100 mg wet tissue/ml (motor-driven glass homogenizer with setting of 6 for 30 sec).
Binding assays were carried out in 12×75 mm borosilicate glass tubes. […] The mixture was incubated at 37° C. for 2 hr and the bound and the free radioactivity were separated by vacuum filtration through Whatman GF/B filters using a Brandel M-24R cell harvester followed by 2×3 ml washes of PBS at room temperature. Filters containing the bound ^125I ligand were assayed for radioactivity content in a gamma counter (Packard 5000) with 70% counting efficiency. […] The results of inhibition experiments were subjected to nonlinear regression analysis using EBDA by which Ki values were calculated.

[2] = Organ distribution in normal mice after iv injection of [18F]tracers; format: in vivo; details: ICR mice, [18F]tracer in 0.1% BSA
Experimental: The organs of interest were removed and weighed, and the radioactivity was assayed for radioactivity content with an automatic gamma counter. The percentage dose per organ was calculated by a comparison of the tissue counts to suitably diluted aliquots of the injected material. Total activities of blood were calculated under the assumption that they were 7% of the total body weight. The % dose/g of samples was calculated by comparing the sample counts with the count of the diluted initial dose.

AD cortical homogenates = details: Kung et al. 2004, cited from earlier work
Aβ plaques = details: cited from earlier work
[3] = Partition coefficient (1-octanol/buffer); format: physicochemical; details: 1-octanol / 0.1 M phosphate buffer, pH 7.4
Experimental: Partition coefficients were measured by mixing the [^18F]tracer with 3 g each of 1-octanol and buffer (0.1 M phosphate, pH 7.4) in a test tube. The test tube was vortexed for 3 min at room temperature, followed by centrifugation for 5 min. Two weighed samples (0.5 g each) from the 1-octanol and buffer layers were counted in a well counter. The partition coefficient was determined by calculating the ratio of cpm/g of 1-octanol to that of buffer. Samples from the 1-octanol layer were re-partitioned until consistent partitions of coefficient values were obtained (usually the 3rd or 4th partition). The measurement was done in triplicate and repeated three times.

Aβ plaques (postmortem AD brain homogenates), sequence (P05067 672-711 limits assumed): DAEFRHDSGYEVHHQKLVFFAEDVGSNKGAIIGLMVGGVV
fibrillar Aβ aggregates, sequence (P05067 672-711 limits assumed): as above

Compound: O=C(O)c1cc(/N=N/c2ccc(-c3ccc(/N=N/c4ccc(O)c(C(=O)O)c4)cc3)cc2)ccc1O [CG, chrysamine-G]
Ki (fibrillar Aβ aggregates): 370 nM

Compound: CNc1ccc(C=Cc2ccc(OCCOCCO)cc2)cc1 [Compound 3a, 2-(2-{4-[2-(4-Methylamino-phenyl)-vinyl]-phenoxy}-ethoxy)-ethanol]
Ki ([1]; read-out: Ki ± SEM, X = OH): 5.2 ± 0.4 nM

Compound: CNc1ccc(/C=C/c2ccc(O)cc2)cc1 [[^3H]SB-13]
Kd (AD cortical homogenates): 2.4 ± 0.2 nM

Compound: [3H]N(c1ccc(/C=C/c2ccc(O)cc2)cc1)C([3H])([3H])[3H] [[^3H]SB-13]
binding capacity (AD cortical homogenates; AD cortical homogenates): 14-45 pmol/mg protein

Compound: [11CH3]Nc1ccc(-c2nc3ccc(O)cc3s2)cc1 [[^11C]6-OH-BTA-1]
retention in the cortex (Aβ plaques; patients with diagnosed mild AD): marked retention

Compound: [11CH3]Nc1ccc(/C=C/c2ccc(O)cc2)cc1 [[^11C]SB-13]
accumulation in the frontal cortex (Aβ plaques; mild to moderate AD patients, not in age-matched control subjects): high accumulation

Compound: CC(=C(C#N)C#N)c1ccc2cc(N(C)CCF)ccc2c1 [[^18F]FDDNP]
relative residence time of the brain region of interest versus the pons (Aβ plaques; AD patients versus comparison subjects, PET): significantly higher in AD patients

The remaining lines, values ahead:

Ki ([1]; read-out: Ki ± SEM, X = OH): 2.8 ± 0.2 nM
Compound: CNc1ccc(C=Cc2ccc(OCCOCCOCCO)cc2)cc1 [Compound 3b, 2-[-2-(2-{4-[2-(4-Methylamino-phenyl)-vinyl]-phenoxy}-ethoxy)-ethoxy]-ethanol]

Ki ([1]; read-out: Ki ± SEM, X = OH): 4.6 ± 0.2 nM
Compound: CNc1ccc(C=Cc2ccc(OCCOCCOCCOCCO)cc2)cc1 [Compound 3c, 2-{2-[2-(2-{4-[2-(4-Methylamino-phenyl)-vinyl]-phenoxy}-ethoxy)-ethoxy]-ethoxy}-ethanol]

Ki ([1]; read-out: Ki ± SEM, X = OH): 5.2 ± 0.2 nM
Compound: CNc1ccc(C=Cc2ccc(OCCOCCOCCOCCOCCO)cc2)cc1 [Compound 3d, 2-(2-{2-[2-(2-{4-[2-(4-Methylamino-phenyl)-vinyl]-phenoxy}-ethoxy)-ethoxy]-ethoxy}-ethoxy)-ethanol]

Blood ([2]; 2 min): 2.64 ± 0.55 % dose/g | Bone ([2]; 2 min): 1.89 ± 0.25 % dose/g | Brain ([2]; 2 min): 8.14 ± 2.03 % dose/g | Blood ([2]; 30 min): 2.42 ± 0.27 % dose/g | Bone ([2]; 30 min): 1.40 ± 0.11 % dose/g | Brain ([2]; 30 min): 3.00 ± 0.16 % dose/g | Blood ([2]; 1 hr): 2.04 ± 0.16 % dose/g | Bone ([2]; 1 hr): 1.71 ± 0.23 % dose/g | Brain ([2]; 1 hr): 2.60 ± 0.22 % dose/g | Blood ([2]; 2 hr): 2.77 ± 0.63 % dose/g | Bone ([2]; 2 hr): 2.88 ± 0.07 % dose/g | Brain ([2]; 2 hr): 2.14 ± 0.06 % dose/g | Ki ([1]; read-out: Ki ± SEM, X = F): 2.9 ± 0.2 nM
Compound: CNc1ccc(C=Cc2ccc(OCCOCCF)cc2)cc1 [Compound 12a, [4-(2-{4-[2-(2-Fluoro-ethoxy)-ethoxy]-phenyl}-vinyl)-phenyl]-methyl-amine]

Blood ([2]; 2 min): 3.22 ± 0.20 % dose/g | Bone ([2]; 2 min): 2.31 ± 0.12 % dose/g | Brain ([2]; 2 min): 6.59 ± 0.19 % dose/g | Blood ([2]; 30 min): 1.88 ± 0.08 % dose/g | Bone ([2]; 30 min): 1.00 ± 0.02 % dose/g | Brain ([2]; 30 min): 1.27 ± 0.03 % dose/g | Blood ([2]; 1 hr): 1.81 ± 0.48 % dose/g | Bone ([2]; 1 hr): 0.98 ± 0.27 % dose/g | Brain ([2]; 1 hr): 1.20 ± 0.10 % dose/g | Blood ([2]; 2 hr): 1.60 ± 0.12 % dose/g | Bone ([2]; 2 hr): 1.50 ± 0.05 % dose/g | Brain ([2]; 2 hr): 1.21 ± 0.06 % dose/g
Compound: CNc1ccc(C=Cc2ccc(OCCOCCOCCOCCF)cc2)cc1 [Compound 12c, (4-{2-[4-(2-{2-[2-(2-Fluoro-ethoxy)-ethoxy]-ethoxy}-ethoxy)-phenyl]-vinyl}-phenyl)-methyl-amine]

Blood ([2]; 2 min): 4.99 ± 0.38 % dose/g | Bone ([2]; 2 min): 2.24 ± 0.21 % dose/g | Brain ([2]; 2 min): 7.30 ± 1.05 % dose/g | Blood ([2]; 30 min): 4.66 ± 0.06 % dose/g | Bone ([2]; 30 min): 2.29 ± 0.21 % dose/g | Brain ([2]; 30 min): 2.43 ± 0.03 % dose/g | Blood ([2]; 1 hr): 2.89 ± 0.11 % dose/g | Bone ([2]; 1 hr): 1.66 ± 0.01 % dose/g | Brain ([2]; 1 hr): 1.77 ± 0.11 % dose/g | Blood ([2]; 2 hr): 2.59 ± 0.18 % dose/g | Bone ([2]; 2 hr): 2.35 ± 0.27 % dose/g | Brain ([2]; 2 hr): 1.62 ± 0.03 % dose/g | Ki ([1]; read-out: Ki ± SEM, X = F): 6 ± 0.8 nM
Compound: CNc1ccc(C=Cc2ccc(OCCOCCOCCOCCOCCF)cc2)cc1 [Compound 12d, [4-(2-{4-[2-(2-{2-[2-(2-Fluoro-ethoxy)-ethoxy]-ethoxy}-ethoxy)-ethoxy]-phenyl}-vinyl)-phenyl]-methyl-amine]

logp value (lipophilicity) [3]: 2.52
Compound: CNc1ccc(C=Cc2ccc(OCCOCC[18F])cc2)cc1 [[^18F]12a, [^18F][4-(2-{4-[2-(2-Fluoro-ethoxy)-ethoxy]-phenyl}-vinyl)-phenyl]-methyl-amine]

Bone ([2]; 2 hr): 2.74 % dose/g | logp value (lipophilicity) [3]: 2.41
Compound: CNc1ccc(C=Cc2ccc(OCCOCCOCC[18F])cc2)cc1 [[^18F]12b, [^18F]{4-[2-(4-{2-[2-(2-Fluoro-ethoxy)-ethoxy]-ethoxy}-phenyl)-vinyl]-phenyl}-methyl-amine]

logp value (lipophilicity) [3]: 2.05
Compound: CNc1ccc(C=Cc2ccc(OCCOCCOCCOCC[18F])cc2)cc1 [[^18F]12c]

logp value (lipophilicity) [3]: 2.28
Compound: CNc1ccc(C=Cc2ccc(OCCOCCOCCOCCOCC[18F])cc2)cc1 [[^18F]12d]
